Measurements: patent EP0603240B1, “SAFENING HERBICIDAL PYRAZOLYLSULFONYLUREAS” (priority 1991, dated 1993)

Key:
Assay type in all cases: in vivo
[1] = system: barnyardgrass (Echinochloa crusgalli); assay: Example 21, Procedure II: Herbicide No. 1 + SUTAN PLUS (butylate + antidote) with antidotes
Description: (§1) Containers were filled and compacted with a fumigated silt loam top soil to a depth of about 1.3 cm from the top of the container. A first container was designated as an untreated control, a second container was designated as a herbicide control, and a third container was designated as a herbicide + antidote test container. Each of the containers was seeded with a crop species. A measured amount of herbicide dispersed or dissolved in acetone was applied to a measured quantity of soil. To this same quantity of soil treated with herbicide, there was added a measured amount of antidote dispersed or dissolved in acetone. The quantity of soil treated with the herbicide and antidote was thoroughly mixed to incorporate the herbicide and antidote in the soil uniformly. The seed bed in the third container of soil was covered with the soil treated with the herbicide and antidote and the container was leveled. For each test series, the seed beds of the first and second containers were likewise covered by soil layers. the cover layer of the first container was not treated with herbicide or antidote.
(§2) The containers were then placed on a bench in a greenhouse and sub-irrigated as required for the duration of the test. […] Plant response is measured in terms of percent injury. Antidote efficacy is indicated as the difference in plant injury by the herbicide(s) without the antidote and with the antidote.
(§3) This procedure is the same as Procedure I, but modified in the manner that after incorporation of the chemicals (herbicide and antidote) the containers with the covered seedbed were treated with an initial overhead irrigation equivalent to 0.6 cm rainfall, then subsequently sub-irrigated as required on greenhouse benches.
(§4) In the series of greenhouse tests described below, for routine screening purposes the herbicide/antidote compositions were tested in crop/weed combinations involving corn as the crop and either or both of the weeds barnyardgrass (Echinochloa crusgalli), a monocotyledonous weed, and velvetleaf (Abutilon theophrasti), a dicotyledonous weed. In the tables below, these weeds are indicated by the symbols "BYG" and "VL", respectively.
(§5) In this example, tests were conducted as in the preceding Examples 18-20, except here the co-herbicidal component was SUTAN® PLUS, a commercial product comprising as the active herbicidal ingredient the compound butylate (Herbicide No. 10) and an antidote […] (Antidote No. 1). Again, the antidotal compounds herein were Nos. 1, 2, 7, 13 and 15. Procedure II was used.

[2] = system: velvetleaf (Abutilon theophrasti); assay: as above
Description: as §1, §2, §3, §4, §5

[3] = system: barnyardgrass (Echinochloa crusgalli); assay: Example 22: retest of Example 21 at reduced greenhouse temperatures; settings: Table 22
Description: as §1, §2, §3, §4, §5
(§6) The experiments in this example were designed as a retest of those described in Example 21 in view of the uncharacteristically poor corn safety and weed control, believed to have resulted from unseasonably high temperatures in the greenhouse. Accordingly, temperatures were reduced for these tests.

[4] = system: velvetleaf (Abutilon theophrasti); assay: as above; settings: Table 22
Description: as §1, §2, §3, §4, §5, §6

corn [5] = assay: Example 18, Procedure II: Herbicide No. 1 + ERADICANE (EPTC + R-25788) with auxiliary antidotes
Description: as §1, §2, §3
(§7) In the test reported in this example, the herbicidal composition was similar to that used in Example 16 in that Herbicide No. 1 was combined with EPTC (Herbicide No. 4) as a co-herbicide and the antidotes included Nos. 1, 2, 7, 13 and 15. However, in this test the EPTC was introduced as a formulation of ERADICANE (EPTC + the antidote R-25788, i.e., Antidote No. 1) at an application rate of 8.96 kg/ha. Thus, in this test two antidotes were present, viz. R-25788 and one of the auxilliary antidotes, No. 2, 13 and 15.
(§8) Test procedures were those of Procedure II above.

[6] = system: barnyardgrass (Echinochloa crusgalli); assay: Example 19, Procedure II: Herbicide No. 1 + ERADICANE EXTRA with added antidotes
Description: as §1, §2, §3, §4, §7
(§9) The test reported in this example was performed in the same manner and with the same antidotes used in Example 18, the only difference being the substitution of the commercial herbicidal product ERADICANE® EXTRA for ERADICANE®. ERADICANE EXTRA is a formulation containing both an antidote, i.e., R-29148 (Antidote No. 5 herein), and an extender, dietholate.

[7] = system: velvetleaf (Abutilon theophrasti); assay: as above
Description: as §1, §2, §3, §4, §7, §9

[8] = system: barnyardgrass (Echinochloa crusgalli); assay: Example 18, Procedure II: Herbicide No. 1 + ERADICANE (EPTC + R-25788) with auxiliary antidotes
Description: as §1, §2, §3, §4, §7, §8

[9] = system: velvetleaf (Abutilon theophrasti); assay: as above
Description: as §1, §2, §3, §4, §7, §8

[10] = system: barnyardgrass (Echinochloa crusgalli); assay: Example 7, Procedure II: Herbicide No. 1 + metolachlor (No. 12) with antidotes
Description: as §1, §2, §3, §4
(§10) In this example, Procedure II described above was followed. The data from the tests in this example is shown in Table 6 and represents averages of duplicate replications.
(§11) The tests in this example followed the same procedure and antidotes used in Example 6. However, Herbicide No. 12 (metolachlor) was used as the co-herbicide with Herbicide No. 1.

[11] = system: velvetleaf (Abutilon theophrasti); assay: as above
Description: as §1, §2, §3, §4, §10, §11

corn [12] = assay: as above
Outline: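 Herbicide plus antidote, applied in acetone, mixed into silt loam top soil used to cover corn seed beds, with untreated and herbicide-only controls. After incorporation, containers got overhead irrigation equal to 0.6 cm rainfall, then sub-irrigation in greenhouse. Percent injury scored; antidote efficacy is injury difference; duplicate averages.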

[13] = Herbicide No.1 0.56 kg/ha + SUTAN + 8.96 kg/ha, antidote 2.24 kg/ha
[14] = Herbicide No.1 0.56 kg/ha + SUTAN + 8.96 kg/ha, antidote 8.96 kg/ha
[15] = Herbicide No.1 1.12 kg/ha + SUTAN + 8.96 kg/ha, antidote 2.24 kg/ha
[16] = Herbicide No.1 1.12 kg/ha + SUTAN + 8.96 kg/ha, antidote 8.96 kg/ha
[17] = Herbicide No.1 0.56 Kg/ha + SUTAN + 8.96 Kg/ha + antidote 2.24 Kg/ha
[18] = Herbicide No.1 0.56 Kg/ha + SUTAN + 8.96 Kg/ha + antidote 8.96 Kg/ha
[19] = Herbicide No.1 1.12 Kg/ha + SUTAN + 8.96 Kg/ha + antidote 2.24 Kg/ha
[20] = Herbicide No.1 1.12 Kg/ha + SUTAN + 8.96 Kg/ha + antidote 8.96 Kg/ha
[21] = Herbicide No.1 0.56 kg/ha + ERADICANE 8.96 kg/ha, antidote 2.24 kg/ha
[22] = Herbicide No.1 0.56 kg/ha + ERADICANE 8.96 kg/ha, antidote 8.96 kg/ha
[23] = Herbicide No.1 1.12 kg/ha + ERADICANE 8.96 kg/ha, antidote 2.24 kg/ha
[24] = Herbicide No.1 1.12 kg/ha + ERADICANE 8.96 kg/ha, antidote 8.96 kg/ha
[25] = Herbicide No.1 0.56 kg/ha + ERADICANE EXTRA 8.96 kg/ha, antidote 2.24 kg/ha
[26] = Herbicide No.1 0.56 kg/ha + ERADICANE EXTRA 8.96 kg/ha, antidote 8.96 kg/ha
[27] = Herbicide No.1 1.12 kg/ha + ERADICANE EXTRA 8.96 kg/ha, antidote 2.24 kg/ha
[28] = Herbicide No.1 1.12 kg/ha + ERADICANE EXTRA 8.96 kg/ha, antidote 8.96 kg/ha
[29] = Herbicide No.1 0.14 + No.12 3.36 kg/ha + antidote 2.24 kg/ha
[30] = Herbicide No.1 0.14 + No.12 3.36 kg/ha + antidote 8.96 kg/ha
[31] = Herbicide No.1 0.56 + No.12 3.36 kg/ha + antidote 2.24 kg/ha
[32] = Herbicide No.1 0.56 + No.12 3.36 kg/ha + antidote 8.96 kg/ha

CC1(C(Cl)Cl)OCCO1 [compound 13]
% Injury BYG [1, 13]: 40% | % Injury BYG [1, 14]: 50% | % Injury BYG [1, 15]: 70% | % Injury BYG [1, 16]: 70% | % Injury VL [2, 13]: 55% | % Injury VL [2, 14]: 40% | % Injury VL [2, 15]: 70% | % Injury VL [2, 16]: 70% | % Injury BYG [3, 17]: 90% | % Injury BYG [3, 18]: 90% | % Injury BYG [3, 19]: 95% | % Injury BYG [3, 20]: 93% | % Injury VL [4, 17]: 85% | % Injury VL [4, 18]: 95% | % Injury VL [4, 19]: 95% | % Injury VL [4, 20]: 90% | % Injury Corn (corn [5]; [21]): 10% | % Injury Corn (corn [5]; [22]): 20% | % Injury Corn (corn [5]; [23]): 10% | % Injury Corn (corn [5]; [24]): 40% | % Injury BYG [6, 25]: 90% | % Injury BYG [6, 26]: 90% | % Injury BYG [6, 27]: 90% | % Injury BYG [6, 28]: 95% | % Injury VL [7, 25]: 65% | % Injury VL [7, 26]: 70% | % Injury VL [7, 27]: 80% | % Injury VL [7, 28]: 85% | % Injury BYG [8, 21]: 85% | % Injury BYG [8, 22]: 85% | % Injury BYG [8, 23]: 85% | % Injury BYG [8, 24]: 90% | % Injury VL [9, 21]: 80% | % Injury VL [9, 22]: 80% | % Injury VL [9, 23]: 75% | % Injury VL [9, 24]: 75% | % Injury BYG [10, 29]: 100% | % Injury BYG [10, 30]: 100% | % Injury BYG [10, 31]: 100% | % Injury BYG [10, 32]: 100% | % Injury VL [11, 29]: 75% | % Injury VL [11, 30]: 80% | % Injury VL [11, 31]: 85% | % Injury VL [11, 32]: 85% | % Injury Corn (corn [12]; [29]): 0% | % Injury Corn (corn [12]; [30]): 0% | % Injury Corn (corn [12]; [31]): 10% | % Injury Corn (corn [12]; [32]): 10%

O=C(C(Cl)Cl)N1CCOC12CCCCC2 [compound 7]
% Injury BYG [1, 13]: 25% | % Injury BYG [1, 14]: 10% | % Injury BYG [1, 15]: 40% | % Injury BYG [1, 16]: 10% | % Injury VL [2, 13]: 45% | % Injury VL [2, 14]: 65% | % Injury VL [2, 15]: 65% | % Injury VL [2, 16]: 45% | % Injury BYG [3, 17]: 90% | % Injury BYG [3, 18]: 90% | % Injury BYG [3, 19]: 95% | % Injury BYG [3, 20]: 80% | % Injury VL [4, 17]: 80% | % Injury VL [4, 18]: 75% | % Injury VL [4, 19]: 97% | % Injury VL [4, 20]: 70% | % Injury Corn (corn [5]; [21]): 15% | % Injury Corn (corn [5]; [22]): 20% | % Injury Corn (corn [5]; [23]): 15% | % Injury Corn (corn [5]; [24]): 10% | % Injury BYG [6, 25]: 85% | % Injury BYG [6, 26]: 85% | % Injury BYG [6, 27]: 90% | % Injury BYG [6, 28]: 85% | % Injury VL [7, 25]: 75% | % Injury VL [7, 26]: 80% | % Injury VL [7, 27]: 75% | % Injury VL [7, 28]: 85% | % Injury BYG [8, 21]: 90% | % Injury BYG [8, 22]: 85% | % Injury BYG [8, 23]: 85% | % Injury BYG [8, 24]: 85% | % Injury VL [9, 21]: 75% | % Injury VL [9, 22]: 80% | % Injury VL [9, 23]: 70% | % Injury VL [9, 24]: 75% | % Injury BYG [10, 29]: 100% | % Injury BYG [10, 30]: 100% | % Injury BYG [10, 31]: 100% | % Injury BYG [10, 32]: 100% | % Injury VL [11, 29]: 70% | % Injury VL [11, 30]: 65% | % Injury VL [11, 31]: 85% | % Injury VL [11, 32]: 85% | % Injury Corn (corn [12]; [29]): 10% | % Injury Corn (corn [12]; [30]): 10% | % Injury Corn (corn [12]; [32]): 15%
